Consider six molecules from patent US9669035B2, “Combinations comprising PDE 2 inhibitors such as 1-aryl-4-methyl-[1,2,4]triazolo-[4,3-A]]quinoxaline compounds and PDE 10 inhibitors for use in the treatment of neurological of metabolic disorders” (Janssen Pharmaceutica NV, priority 2012, dated 2017).

For assay [1], the system named is d-Amphetamine-induced hyperlocomotion in rats. As to the kind of experiment: d-Amphetamine-induced hyperlocomotion in rats: MP-10 or B-1a alone (FIGS. 6-8). It counts as in vivo, rat.
The test system of assay [2] is cGMP levels in the rat brain. The following applies: 2.5 mpk.
Assay [3] concerns Apomorphine-induced agitation in rats. The assay is described as follows: Apomorphine-induced agitation: MP-10 (s.c.) dose-response with co-administered B-1a (FIGS. 1-3). In kind it is in vivo, rat.
The target of another assay is PDE2 (Rattus norvegicus (Rat), UniProt Q01062). The assay is described as follows: Potentiation of in vivo [3H]B-1a binding to PDE2 by MP-10 (ex vivo autoradiography).
The target in assay [4] is Rat recombinant PDE10A (rPDE10A2) (Rattus norvegicus (Rat), UniProt Q9QYJ6). As to the kind of experiment: In vitro assay PDE10A (SPA, 3H-cAMP). In kind it is biochemical.
Chain of Rat recombinant PDE10A (rPDE10A2) (Q9QYJ6 whole entry): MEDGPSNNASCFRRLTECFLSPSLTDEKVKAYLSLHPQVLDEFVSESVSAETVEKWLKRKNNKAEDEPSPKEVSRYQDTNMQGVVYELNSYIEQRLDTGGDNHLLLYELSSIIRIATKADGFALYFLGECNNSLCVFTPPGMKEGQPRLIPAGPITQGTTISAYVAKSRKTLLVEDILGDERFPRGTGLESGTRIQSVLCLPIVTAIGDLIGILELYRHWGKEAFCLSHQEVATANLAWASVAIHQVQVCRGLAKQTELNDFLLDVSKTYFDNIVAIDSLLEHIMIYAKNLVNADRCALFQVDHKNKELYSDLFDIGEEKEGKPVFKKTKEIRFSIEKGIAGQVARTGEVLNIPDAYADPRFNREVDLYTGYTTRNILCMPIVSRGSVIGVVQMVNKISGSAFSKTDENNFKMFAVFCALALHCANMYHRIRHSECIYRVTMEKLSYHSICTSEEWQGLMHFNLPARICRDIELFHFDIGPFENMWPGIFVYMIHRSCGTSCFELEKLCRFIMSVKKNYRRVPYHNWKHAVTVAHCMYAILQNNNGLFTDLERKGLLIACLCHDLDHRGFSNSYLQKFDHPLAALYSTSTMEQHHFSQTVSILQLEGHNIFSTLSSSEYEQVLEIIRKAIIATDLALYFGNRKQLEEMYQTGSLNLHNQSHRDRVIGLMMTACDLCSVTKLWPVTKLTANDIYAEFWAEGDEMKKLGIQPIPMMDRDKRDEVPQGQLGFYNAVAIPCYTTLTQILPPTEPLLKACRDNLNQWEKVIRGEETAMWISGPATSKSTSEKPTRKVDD
In assay [5] the test system is Apomorphine-induced agitation in rats. The assay is described as follows: Inhibition of apomorphine-induced agitation in rats in combination with MP-10. It counts as in vivo, rat. Particulars: SC, MP-10 (0.63 mg/kg) + apomorphine (1.0 mg/kg) i.v. As to the method: Inhibition of Apomorphine-induced Agitation in Rats in combination with MP-10 but the animals were simultaneously challenged with MP-10 (0.63 mg/kg) in addition to apomorphine (1.0 mg/kg) via one injection (2 ml/kg, i.v.), at a fixed time interval (standard 1 h) after s.c. or p.o. dosing of test compound or solvent. Twelve times, every 5 min, the intensity of agitation was scored 0 to 3.

Assay [6] deals with cAMP and cGMP levels in the rat brain (hippocampus and striatum). Particulars: in vivo.
The subject of assay [7] is d-Amphetamine-induced hyperlocomotion in rats. As to the kind of experiment: d-Amphetamine-induced hyperlocomotion in rats: potentiation of the effect of MP-10. It counts as in vivo, rat. The following applies: SC, d-amphetamine (1.25 mg/kg, s.c.) + MP-10 (2.5 mg/kg, s.c.).
Assay [8] has the same test system. As to the kind of experiment: Inhibition of d-amphetamine-induced hyperlocomotion in rats in combination with Compound A and Compound B (FIGS. 9, 10). It counts as in vivo. The following applies: Rattus norvegicus, sc. As to the method:
Shown are individual values (open and closed circles for PDE2-i at 0 and 10 mg/kg, respectively) and median values (horizontal lines) for distance traveled per dose group. The dotted horizontal lines represent the criteria adopted for drug-induced effects (<5500 and <1100 cm). In FIG. 9: * p<0.05, ** p<0.01, *** p<0.001 (Bonferroni posttests 0 vs 10 mg/kg).
The dotted horizontal lines represent the critical levels for drug-induced effects (<5500 cm and <1100 cm).
Shown are individual values (open and closed circles for PDE2-i at 0 and 10 mg/kg, respectively) and median values (horizontal lines) for distance traveled per dose group. The dotted horizontal lines represent the criteria adopted for drug-induced effects (<5500 and <1100 cm). […] This is also reflected in the listed ED50 values.

Assay [9] deals with Apomorphine-induced agitation in rats. The assay is described as follows: Inhibition of apomorphine-induced agitation in rats in combination with Compound A and Compound B (FIGS. 4, 5). In kind it is in vivo. The following applies: Rattus norvegicus, sc. As for the experimental part: Shown are individual scores (open and closed circles for PDE2-i at 0 and 10 mg/kg, respectively) and median scores (horizontal lines) for agitation per dose group. In FIG. 4: * p<0.05, ** p<0.01, *** p<0.001 (Bonferroni posttests 0 vs 10 mg/kg).
In FIG. 5: * p<0.05 (Dunnett's Multiple Comparison Test vs. 0 mg/kg)
Shown are individual scores (open and closed circles for PDE2-i at 0 and 10 mg/kg, respectively) and median scores (horizontal lines) for agitation per dose group. […] This is also reflected in the listed ED50 values.

Where [10] appears, read: read-out: ED50 (95% confidence limits) for reducing distance traveled to <1100 cm, PDE10-i s.c., -1 h, co-treatment with B-1a 0 mg/kg.
The mark [11] stands for this setting: read-out: ED50 (95% confidence limits) for reducing distance traveled to <1100 cm, PDE10-i s.c., -1 h, co-treatment with B-1a 10 mg/kg s.c.
The mark [12] stands for this setting: read-out: ED50 (95% confidence limits) for reducing distance traveled to <5500 cm, PDE10-i s.c., -1 h, co-treatment with B-1a 0 mg/kg.
Setting [13] is: read-out: ED50 (95% confidence limits) for reducing distance traveled to <5500 cm, PDE10-i s.c., -1 h, co-treatment with B-1a 10 mg/kg s.c.
Setting [14] is: read-out: ED50 (95% confidence limits) for reducing agitation score to <5, PDE10-i s.c., -1 h, co-treatment with B-1a 0 mg/kg.
Setting [15] is: read-out: ED50 (95% confidence limits) for reducing agitation score to <5, PDE10-i s.c., -1 h, co-treatment with B-1a 10 mg/kg s.c.
[16] abbreviates: read-out: ED50 (95% confidence limits) for reducing agitation score to <10, PDE10-i s.c., -1 h, co-treatment with B-1a 0 mg/kg.
The mark [17] stands for this setting: read-out: ED50 (95% confidence limits) for reducing agitation score to <10, PDE10-i s.c., -1 h, co-treatment with B-1a 10 mg/kg s.c.
[18] abbreviates: read-out: ED50 (95% confidence limits) for reducing agitation score to <21, PDE10-i s.c., -1 h, co-treatment with B-1a 0 mg/kg.
[19] abbreviates: read-out: ED50 (95% confidence limits) for reducing agitation score to <21, PDE10-i s.c., -1 h, co-treatment with B-1a 10 mg/kg s.c.

Where two headings read alike, the source gives them in different places.

A word on the ED50: it is the dose that gives a 50% effect, or the effect in half of the subjects. As for `Cn1cc(-c2ccncc2)c(-c2ccc(OCc3ccc4ccccc4n3)cc2)n1` [MP-10, 2-{[4-(1-methyl-4-pyridin-4-yl-1H-pyrazol-3-yl)phenoxy]methyl}quinoline], in assay [1] (Rattus norvegicus, sc, read-out: ED50 for reducing d-amphetamine-induced hyperlocomotion to a distance <1000 cm, MP-10 (-1 h, s.c.) alone, historical data), the ED50 is more than 40 mg/kg. Also, the “effect on d-amphetamine-induced hyperlocomotion, alone” value in [1] (up to 40 mg/kg s.c.) is “almost never achieves values <2500 cm”. Also, the “mean nmol cGMP/ml” value in assay [2] amounted to 8.7 nmol cGMP/ml. This molecule displayed a fold increase in [2] (cGMP vs vehicle) of 1.4. In assay [2] (increase versus control), the “incr vs contr (pmol cGMP/ml) (measured)” value is reported as 2.4 pmol cGMP/ml. Moreover, in [3] (MP-10 -1 h, s.c., with B-1a or solvent), the “effect on apomorphine-induced agitation (median score)” value is reported as “dose-dependently inhibited agitation”. Moreover, in [3] (MP-10 up to 10 mg/kg, co-administered B-1a <=0.63 mg/kg), the “median agitation scores <10” value was “not obtained”. The “in vivo [3H]B-1a binding expressed as % of binding in vehicle-treated rats, AVG” value at PDE2 (dose MP-10 0.63 mpk) came to 80%; at PDE2 (dose MP-10 2.5 mpk) it was 302%; on PDE2 (dose MP-10 10 mpk), 501%; on PDE2 (dose MP-10 40 mpk), 739%.

On to `COC(=O)[C@@H](N)CCCNC(=N)N[N+](=O)[O-]` [L-NAME], for which the “effect of pre-treatment on potentiation of [3H]B-1a binding by MP-10” value on PDE2 (pre-treatment) is “prevented the potentiation”.

On to `CCCCOc1cncc(-c2nnc3c(C)nc4ccc(CN(C)C)cc4n23)c1` [Compound B-27], for which, in assay [4], the “PIC50 PDE10” value is given as 5.03. In addition, the “Inh. of agitation < 10 Effect (cumulative agitation score)” value (shortened to “Inh. of agitation < 10 Effect”) in [5] (Time 60, dose 10) turned out to be 14. For the same molecule, in assay [6], the “Hippocampus cAMP (% of Control)” value was 122 ± 10 % of Control, the “Hippocampus cGMP (% of Control)” value is recorded as 104 ± 32 % of Control, the “Striatum cAMP (% of Control)” value is given as 89 ± 6 % of Control and the “Striatum cGMP (% of Control)” value was 128 ± 26 % of Control. The “Distance Total <2500 cm Effect” value in [7] (Time -60, dose 2.5) came out at 4145 cm. The “Distance Total <2500 cm Effect” value in assay [7] (Time -60, dose 10) was 2500 cm.

`Cc1nc2c(N3CCOCC3)nccn2c1-c1ccc(C2CCOCC2)nc1` [Compound B]: the 50% effective dose (ED50) in assay [8] (setting [10]) was more than 40 mg/kg; in assay [8] (setting [11]), 16.3 mg/kg; in assay [8] (setting [12]), 3.1 mg/kg; in [8] (setting [13]), 2.04 mg/kg; in assay [9] (setting [14]), not below 40 mg/kg; in assay [9] (setting [15]) it was 10.8 mg/kg. For the same molecule, the ED50 in assay [9] (setting [16]) came to 32 mg/kg; in assay [9] (setting [17]), 6.2 mg/kg; in assay [9] (setting [18]) it was 2.71 mg/kg; in assay [9] (setting [19]), 2.36 mg/kg.

Take `CCCCOc1ccc(Cl)c(-c2nnc3c(C)nc4ccc(CN(C)C)cc4n23)c1` [Compound B-11]: in assay [4], the “PIC50 PDE10” value was 5.67. The “Inh. of agitation < 10 Effect” value in assay [5] (Time 60, dose 2.5) was determined as 17. In assay [5] (Time 60, dose 10), the “Inh. of agitation < 10 Effect” value worked out at 7. For the same molecule, in assay [6], the “Hippocampus cAMP (% of Control)” value is on record as 117 ± 20 % of Control, the “Hippocampus cGMP (% of Control)” value is on record as 150 ± 42 % of Control, the “Striatum cAMP (% of Control)” value was 88 ± 12 % of Control and the “Striatum cGMP (% of Control)” value is recorded as 121 ± 20 % of Control. Further, in assay [7] (Time -60, dose 2.5), the “Distance Total <2500 cm Effect” value came to 3494 cm. Moreover, the “Distance Total <2500 cm Effect” value in [7] (Time -60, dose 10) was determined as 1960 cm.

As for `COCCc1ccc(-c2c(C)nc3c(N4CCOCC4)ccnn23)cn1` [Compound A], the ED50 in assay [8] (setting [10]) is more than 40 mg/kg; in [8] (setting [11]), 6.2 mg/kg; in assay [8] (setting [12]), 0.89 mg/kg; in assay [8] (setting [13]), 0.67 mg/kg; in assay [9] (setting [14]), not below 40 mg/kg; in assay [9] (setting [15]) it was 12.4 mg/kg. Moreover, the median effective dose (ED50) in [9] (setting [16]) worked out at 16.3 mg/kg; in assay [9] (setting [17]), 6.2 mg/kg; in [9] (setting [18]), 2.71 mg/kg; in assay [9] (setting [19]), 3.1 mg/kg.
